Data on four compounds can be found in patent publication US9365612B2, “Caspase inhibitors” (United States of America as represented by the Secretary, …, priority 2010, dated 2016).

Data set [1] is described as follows: plasma protein binding, rat. To be noted: relative to VX-765 (1) and NCGC00185682 (3). It is filed as in vitro ADME. The protocol:
(§1) Given the aqueous stability of these new agents, selected ADME properties for chosen compounds were also examined. VX-765 (1), VRT-043198 (2b), NCGC00185682 (3), NCGC00183434 (4) and NCGC00183681 (16) were evaluated for a profile of bi-directional Caco-2 permeability, plasma protein binding (both human and rat) and microsomal stability (both human and rat) studies (FIG. 9, Table 2). […] The clearance rates (Clint) and t ½ for VRT-043198 (2b), NCGC00185682 (3), NCGC00183434 (4) and NCGC00183681 (16) were all moderate.

For data set [2], the target named is T1, caspase 1 (Homo sapiens, UniProt P29466).
T1 sequence (P29466 120-297 limits assumed): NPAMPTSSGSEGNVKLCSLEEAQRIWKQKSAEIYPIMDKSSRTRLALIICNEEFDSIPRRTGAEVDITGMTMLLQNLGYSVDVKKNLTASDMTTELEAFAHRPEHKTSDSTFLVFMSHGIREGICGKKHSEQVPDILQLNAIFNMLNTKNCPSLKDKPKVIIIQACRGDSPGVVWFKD
T1 sequence (P29466 317-404 limits assumed): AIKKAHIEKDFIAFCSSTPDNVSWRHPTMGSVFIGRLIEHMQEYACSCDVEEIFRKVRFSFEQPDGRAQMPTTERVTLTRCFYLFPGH
The data set is described as follows: commercial panel of caspases (Reaction Biology Corporation), caspase 1. Format: biochemical. To be noted: read-out: IC50 versus caspase 1. The text has this:
(§2) Having established that the compounds (3), (4) and (16) are potent inhibitors of caspase 1, the selectivity of these agents was examined. […] Wannamaker, W.; Davies, R.; Namchuk, M.; Pollard, J.; Ford, P.; Ku, G.; Decker, C.; Charifson, P.; Weber, P.; Germann, U. A.; Kuida, K.; Randle, J. C. R. J. Pharmacol. Exp. Ther. 2007, 321, 509-516. […] VRT-043198 (2b), NCGC00185682 (3), NCGC00183434 (4) and NCGC00183681 (16) were entered within a commercial panel of caspases offered by Reaction Biology Corporation. […] A particularly interesting aspect of these molecules was the high selectivity for caspase 1. […] All other activities were about the 1 μM threshold.

Data set [3] is described as follows: aqueous degradation study by LCMS over 96 hours. It is filed as physicochemical. As to conditions: for aqueous stability in acidic conditions (pH 2): pH 2, LCMS; for aqueous stability in acidic conditions (pH 2) / aqueous stability in neutral conditions (water, pH 7) / aqueous stability in basic conditions (pH 8): over 96 hours; for aqueous stability in neutral conditions (water, pH 7): pH 7, LCMS; for aqueous stability in basic conditions (pH 8): pH 8, LCMS. The protocol:
In order to evaluate the agent's stability profile, VX-765 (1), VRT-043198 (2b), NCGC00185682 (3), NCGC00183434 (4) and NCGC00183681 (16) were examined within an aqueous degradation study at neutral (pH 7) acidic (pH 2) and basic (pH 8) conditions. The study was conducted by monitoring the degradation of each agent by LCMS analysis at various time points over 96 hours (FIG. 8). […] This degradation was amplified in both basic and acidic conditions. Conversely, the active agent VRT-043198 (2b) was very stable in both water and acidic conditions and its degradation at pH 8 was moderate.

A short description of data set [4]: plasma protein binding, human. Format: in vitro ADME. As to conditions: relative to VX-765 (1) and NCGC00185682 (3). As to the method: as §1
The nature of data set [5]: microsomal stability (both human and rat). As to conditions: for clearance rates (Clint) / t ½: species not given. It is filed as in vitro ADME. As to the method: as §1
Data set [6] has as its target T1, caspase 1. The data set is described as follows: caspase 1 inhibition assay with caged fluorescent peptide substrate (Ac-LEHD-AMC). Format: biochemical. To be noted: 2 nM enzyme, 20 minutes at room temperature, fluorescence detection, read-out: IC50 versus caspase 1. As to the method:
Each agent's inhibitory capacity versus caspase 1 was evaluated. A well established protocol was utilized whereby caspase 1 activity is measured utilizing 2 nM enzyme in the presence and absence of compound and a caged fluorescent peptide substrate (Ac-LEHD-AMC). Wannamaker et al, Journal of Pharmacology and Experimental Therapeutics, 2007, 321, 509-516. The compounds were examined across a titration series (0.325 nM→57.5 μM) and data was recorded via fluorescence detection following an incubation period of 20 minutes at room temperature.

For a further data set, the target named is T2, caspase 14 (Homo sapiens, UniProt P31944).
T2 construct: purchased Reaction Biology Corporation
T2 sequence (P31944 6-146 limits assumed): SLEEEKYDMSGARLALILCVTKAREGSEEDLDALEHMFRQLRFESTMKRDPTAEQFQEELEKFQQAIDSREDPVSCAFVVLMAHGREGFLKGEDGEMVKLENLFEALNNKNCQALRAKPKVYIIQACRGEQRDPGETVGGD
T2 sequence (P31944 153-242 limits assumed): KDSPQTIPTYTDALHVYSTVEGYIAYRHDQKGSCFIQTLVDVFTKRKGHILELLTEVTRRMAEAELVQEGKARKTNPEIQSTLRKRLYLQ
The data set is described as follows: commercial panel of caspases (Reaction Biology Corporation), caspase 14. Format: biochemical. To be noted: read-out: IC50 versus caspase 14.
Description: as §2

The next data set has as its target T3, Pgp (Homo sapiens, UniProt P08183).
T3 construct: endogenous in cells; host or cells: Caco-2
The data set is described as follows: Caco-2 control experiment with verapamil (Pgp efflux). It is filed as in vitro ADME. As to the method:
as §1

Another data set relates to Caco-2. The data set is described as follows: bi-directional Caco-2 permeability. It is filed as in vitro ADME. The protocol:
as §1

Another data set concerns the target T4, caspase 9 (Homo sapiens, UniProt P55211).
T4 construct: purchased Reaction Biology Corporation
T4 sequence (P55211 1-315 limits assumed): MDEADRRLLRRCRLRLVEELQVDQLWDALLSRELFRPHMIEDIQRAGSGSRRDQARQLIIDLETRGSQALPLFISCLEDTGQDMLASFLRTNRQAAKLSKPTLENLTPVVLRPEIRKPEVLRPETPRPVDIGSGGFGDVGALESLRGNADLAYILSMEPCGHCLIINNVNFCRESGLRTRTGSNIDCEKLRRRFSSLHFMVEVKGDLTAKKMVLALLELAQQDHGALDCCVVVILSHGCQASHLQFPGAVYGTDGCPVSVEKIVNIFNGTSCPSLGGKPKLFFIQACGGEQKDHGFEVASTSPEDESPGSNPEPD
T4 sequence (P55211 331-416 limits assumed): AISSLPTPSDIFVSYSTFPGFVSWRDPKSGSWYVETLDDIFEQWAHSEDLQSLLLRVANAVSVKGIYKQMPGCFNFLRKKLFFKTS
The experiment in a line: commercial panel of caspases (Reaction Biology Corporation), caspase 9. Format: biochemical. As to conditions: read-out: IC50 versus caspase 9.
Description: as §2

T3 sequence (P08183 whole entry): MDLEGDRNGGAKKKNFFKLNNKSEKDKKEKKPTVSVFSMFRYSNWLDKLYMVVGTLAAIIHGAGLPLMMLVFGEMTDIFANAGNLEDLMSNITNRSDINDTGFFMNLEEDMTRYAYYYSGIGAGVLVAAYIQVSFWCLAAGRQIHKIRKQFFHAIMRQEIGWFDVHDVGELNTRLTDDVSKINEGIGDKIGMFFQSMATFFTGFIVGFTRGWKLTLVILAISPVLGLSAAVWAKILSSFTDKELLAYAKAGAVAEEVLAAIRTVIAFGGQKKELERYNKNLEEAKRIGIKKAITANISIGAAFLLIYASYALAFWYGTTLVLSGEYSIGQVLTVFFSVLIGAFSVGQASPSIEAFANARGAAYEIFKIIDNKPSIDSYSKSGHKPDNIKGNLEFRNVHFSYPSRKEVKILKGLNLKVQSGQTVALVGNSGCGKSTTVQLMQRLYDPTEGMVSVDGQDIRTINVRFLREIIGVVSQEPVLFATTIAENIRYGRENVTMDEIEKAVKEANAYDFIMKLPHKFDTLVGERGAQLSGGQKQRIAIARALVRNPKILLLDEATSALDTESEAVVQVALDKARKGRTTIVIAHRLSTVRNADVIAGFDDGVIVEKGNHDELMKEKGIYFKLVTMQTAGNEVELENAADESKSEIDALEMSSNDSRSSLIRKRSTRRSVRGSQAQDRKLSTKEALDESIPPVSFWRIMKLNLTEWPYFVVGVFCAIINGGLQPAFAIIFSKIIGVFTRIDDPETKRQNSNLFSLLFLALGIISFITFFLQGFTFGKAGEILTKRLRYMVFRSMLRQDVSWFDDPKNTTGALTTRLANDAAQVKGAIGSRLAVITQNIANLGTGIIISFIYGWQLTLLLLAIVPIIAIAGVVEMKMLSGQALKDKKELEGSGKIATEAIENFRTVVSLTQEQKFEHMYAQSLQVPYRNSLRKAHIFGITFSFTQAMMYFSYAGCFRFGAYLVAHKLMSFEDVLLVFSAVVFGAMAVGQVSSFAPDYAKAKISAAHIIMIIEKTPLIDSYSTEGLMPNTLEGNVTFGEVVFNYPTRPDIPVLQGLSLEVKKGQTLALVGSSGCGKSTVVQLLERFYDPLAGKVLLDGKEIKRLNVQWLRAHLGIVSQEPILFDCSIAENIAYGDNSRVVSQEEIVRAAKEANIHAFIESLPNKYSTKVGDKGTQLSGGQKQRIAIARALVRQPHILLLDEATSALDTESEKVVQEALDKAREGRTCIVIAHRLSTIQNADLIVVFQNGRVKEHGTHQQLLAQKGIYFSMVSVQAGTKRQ

Turning to `CC(C)(C)C(NC(=O)c1ccc(N)c(Cl)c1)C(=O)N1CCCC1C(=O)NC(C#N)CC(=O)O` (centres unmarked) [NCGC00183434 (4)], in data set [1], the “free fraction in protein binding assay” value is given as “significantly higher”. For the same compound, the IC50 at caspase 1 [2] turned out to be 0.023 nM. The “degradation in acidic conditions” value in [3] (acidic (pH 2), after 72 hours) worked out at 50%. In addition, the “degradation in neutral conditions” value in data set [3] (neutral (pH 7), after 72 hours) came out at 50%. Further, in [3], the “aqueous stability in acidic conditions (pH 2)” value (“aqueous stability … (pH 2)” below) was “moderate to good”; the “aqueous stability in neutral conditions (water, pH 7)” value (“aqueous stability … (water, pH 7)” below) is on record as “moderate to good”; the “aqueous stability in basic conditions (pH 8)” value (“aqueous stability … (pH 8)” below) was “exceedingly stable”. Besides, the “persistence in aqueous conditions” value in data set [3] (suggested from the degradation data) was > 24 h. In addition, in [4], the “free fraction in protein binding assay” value is recorded as “significantly higher”. Moreover, in data set [5] (liver microsomes), the “clearance rates (Clint)” value is reported as “moderate” and the “t ½” value is given as “moderate”. At caspase 1 [6], the IC50 was found to be 0.316 nM. Besides, the IC50 on caspase 14 is 801 nM.
On to `CCO[C@@H]1OC(=O)C[C@@H]1NC(=O)[C@@H]1CCCN1C(=O)[C@@H](NC(=O)c1ccc(N)c(Cl)c1)C(C)(C)C` [VX-765 (1), reference compound], for which, at Pgp, the Pgp efflux substrate entry was “substrates for Pgp efflux”. In [3], the “aqueous stability … (pH 2)” value is on record as “amplified”; the “aqueous stability … (water, pH 7)” value is “moderate degradation”; the “aqueous stability … (pH 8)” value is “amplified”. For the same compound, the “degradation at pH 2” value in [3] (pH 2, after 3.5 hours) turned out to be 40%. Besides, in data set [3] (water (pH 7), after 48 hours), the “compound decomposed in water” value is “over 50%”. In the data set on Caco-2, the “Caco-2 A to B permeability” value was “moderately better levels” and the “Caco-2 B to A levels” value was “high”. The “metabolism by liver microsomes” value in data set [5] (liver microsomes) is given as “minimal ability to be metabolized”. In addition, the half-life in data set [5] (liver microsomes, read-out: t ½) was > 157 h.
For the compound `CC(C)(C)C(NC(=O)c1ccc(N)c(Cl)c1)C(=O)N1CCCC1C(=O)NC(C#N)Cc1nnn[nH]1` (centres unmarked) [NCGC00183681 (16)], the “free fraction in protein binding assay” value in data set [1] is reported as “significantly higher”. On caspase 1 [2], the IC50 came out at 2.58 nM. Further, in data set [3], the “aqueous stability … (pH 2)” value is recorded as “resistant to degradation”; the “aqueous stability … (water, pH 7)” value was “resistant to degradation”; the “aqueous stability … (pH 8)” value was “resistant to degradation”. For the same compound, in data set [4], the “free fraction in protein binding assay” value is reported as “significantly higher”. For the same compound, in data set [5] (liver microsomes), the “clearance rates (Clint)” value is “moderate” and the “t ½” value is on record as “moderate”. At caspase 1 [6], the IC50 came to 20.4 nM. The IC50 on caspase 9 is 91.5 nM.
As to `CCOC(=O)CC(C#N)NC(=O)C1CCCN1C(=O)C(NC(=O)c1ccc(N)c(Cl)c1)C(C)(C)C` (centres unmarked) [NCGC00185682 (3)], the Pgp efflux substrate entry on Pgp is listed as “substrates for Pgp efflux”. For the same compound, at caspase 1 [2], the IC50 was 43.4 nM. In addition, the “degradation in basic conditions” value in data set [3] (basic (pH 8), after 22 hours) is on record as “fully degraded”. In data set [3], the “aqueous stability … (pH 2)” value is “exceptionally stable” and the “aqueous stability … (water, pH 7)” value is reported as “exceptionally stable”. Also, in the data set with Caco-2, the “Caco-2 A to B permeability” value is on record as “moderately better levels” and the “Caco-2 B to A levels” value is “high”. In [5] (liver microsomes), the “clearance rates (Clint)” value is on record as “moderate” and the “t ½” value is “moderate”. For the same compound, in data set [5] (without NADPH as a cofactor), the “degradation in liver microsomes without NADPH” value is given as “slight degree of degradation”. Also, the IC50 on caspase 1 [6] came out at 145 nM.
